Data as given in patent US20240239781A1, “1H-PYRAZOLE DERIVATIVES AS SIGMA LIGANDS” (ACONDICIONAMIENTO TARRASENSE, priority 2021, published 2024).

How the values were obtained:
[1] = molecular target: T1, human σ2/TMEM97 receptor (Homo sapiens, UniProt Q5BJF2); assay: Binding assay to human σ2/TMEM97 receptor ([3H]-DTG, transfected HEK-293 membranes); settings: class scale, read-out: Binding σ-2 Ki
T1 construct: expressed in transfected cells; host or cells: HEK-293
Outline: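 Competition against 10 nM [3H]-DTG (Tris-HCl 50 mM, pH 8.0, 25 °C, 120 min) using 15 μg transfected HEK-293 membrane protein, with 10 μM haloperidol defining NSB. Bound radioactivity counted after filtration; results as single-point % inhibition (1 or 10 μM) or five-point Ki.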

[2] = molecular target: T2, human σ1 receptor (Homo sapiens, UniProt Q99720); assay: Human σ1 receptor radioligand assay ([3H](+)-pentazocine, transfected HEK-293 membranes); settings: class scale, read-out: Binding σ-1 Ki
T2 construct: expressed in transfected cells; host or cells: HEK-293
T2 sequence (Q99720 whole entry): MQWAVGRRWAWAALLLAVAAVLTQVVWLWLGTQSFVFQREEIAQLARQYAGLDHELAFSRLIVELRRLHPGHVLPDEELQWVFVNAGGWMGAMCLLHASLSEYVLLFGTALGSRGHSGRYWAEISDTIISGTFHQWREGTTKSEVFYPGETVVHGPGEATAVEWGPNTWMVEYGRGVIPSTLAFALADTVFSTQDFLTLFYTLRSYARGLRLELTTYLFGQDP
Outline: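 Compounds were tested at a single 1 or 10 μM concentration (% inhibition) or at five concentrations to give Ki. They competed with 5 nM [3H](+)-pentazocine for transfected HEK-293 membranes (7 μg) in 50 mM Tris-HCl pH 8 at 37° C for 120 minutes. Nonspecific binding was set with 10 μM haloperidol, and a filtration scintillation read-out was used.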

T1 sequence (Q5BJF2 whole entry): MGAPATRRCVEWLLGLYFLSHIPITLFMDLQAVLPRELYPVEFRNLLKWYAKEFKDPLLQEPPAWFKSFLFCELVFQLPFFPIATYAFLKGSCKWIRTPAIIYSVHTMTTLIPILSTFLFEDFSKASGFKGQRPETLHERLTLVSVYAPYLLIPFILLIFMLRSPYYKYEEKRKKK

Ki [1] [nM]	Ki [2] [nM]	Structure (SMILES)
< 100	100 to 500	Cc1cc(-c2nn(C)c(Cl)c2C(=O)NC2CCC3(CC2)CCN(CCC(C)(C)C)CC3)no1 [Example 107, 5-Chloro-N-(3-(3,3-dimethylbutyl)-3-azaspiro[5.5]undecan-9-yl)-1-methyl-3-(5-methylisoxazol-3-yl)-1H-pyrazole-4-carboxamide]
> 1000	100 to 500	Cn1nc(-c2cccnc2)c(CN2CCCCC(NCCC(C)(C)C)C2)c1Cl (centres unmarked) [Example 30, 1-((5-Chloro-1-methyl-3-(pyridin-3-yl)-1H-pyrazol-4-yl)methyl)-N-(3,3-dimethylbutyl)azepan-3-amine]
< 100	100 to 500	CC(C)c1cc(-c2nn(C)c(Cl)c2C(=O)N2CCCC3(CCN(CCC(C)(C)C)CC3)C2)no1 [Example 132, (5-Chloro-3-(5-isopropylisoxazol-3-yl)-1-methyl-1H-pyrazol-4-yl)(9-(3,3-dimethylbutyl)-2,9-diazaspiro[5.5]undecan-2-yl)methanone]
500 to 1000	500 to 1000	Cc1cc(-c2nn(C)c(Cl)c2CN2CCC(CNCc3ccccc3)C2)no1 (centres unmarked) [Example 44, N-Benzyl-1-(1-((5-chloro-1-methyl-3-(5-methylisoxazol-3-yl)-1H-pyrazol-4-yl)methyl)pyrrolidin-3-yl)methanamine]
< 100	500 to 1000	Cc1conc1-c1nn(C)c(Cl)c1C(=O)N1CCCC2(CCN(CCC(C)(C)C)CC2)C1 [Example 103, (5-Chloro-1-methyl-3-(4-methylisoxazol-3-yl)-1H-pyrazol-4-yl)(9-(3,3-dimethylbutyl)-2,9-diazaspiro[5.5]undecan-2-yl)methanone]
< 100	500 to 1000	Cc1cc(-c2nn(C)c(Cl)c2CC(=O)N2CCC3(CCN(CCC(C)(C)C)CC3)CC2)no1 [Example 208, 2-(5-Chloro-1-methyl-3-(5-methylisoxazol-3-yl)-1H-pyrazol-4-yl)-1-(9-(3,3-dimethylbutyl)-3,9-diazaspiro[5.5]undecan-3-yl)ethan-1-one]
< 100	100 to 500	Cc1cc(-c2nn(C)c(Cl)c2CN2C[C@@H](CNCCC(C)(C)C)[C@H](C)C2)no1 [Example 77, N-(((3R,4S)-1-((5-Chloro-1-methyl-3-(5-methylisoxazol-3-yl)-1H-pyrazol-4-yl)methyl)-4-methylpyrrolidin-3-yl)methyl)-3,3-dimethylbutan-1-amine]
< 100	500 to 1000	Cc1cc(-c2nn(-c3ccccn3)c(Cl)c2C(=O)N2CCC3(CCN(CCC(C)(C)C)CC3)CC2)no1 [Example 172, (5-Chloro-3-(5-methylisoxazol-3-yl)-1-(pyridin-2-yl)-1H-pyrazol-4-yl)(9-(3,3-dimethylbutyl)-3,9-diazaspiro[5.5]undecan-3-yl)methanone]

The next lines start with the molecule.

Structure (SMILES)	Ki [1] [nM]	Ki [2] [nM]
CCn1nc(-c2cccc(C(F)(F)F)n2)c(CN2CC3(CCN(CCC(C)(C)C)CC3)CC2=O)c1Cl [Example 229, 2-((5-Chloro-1-ethyl-3-(6-(trifluoromethyl)pyridin-2-yl)-1H-pyrazol-4-yl)methyl)-8-(3,3-dimethylbutyl)-2,8-diazaspiro[4.5]decan-3-one]	< 100	< 100
CCn1nc(-c2cc(C)on2)c(C(=O)N2CC3(CCN(CCC(C)(C)C)CC3)C2)c1Cl [Example 184, (5-Chloro-1-ethyl-3-(5-methylisoxazol-3-yl)-1H-pyrazol-4-yl)(7-(3,3-dimethylbutyl)-2,7-diazaspiro[3.5]nonan-2-yl)methanone]	< 100	100 to 500
CCn1nc(-c2cc(C)on2)c(C(=O)N2CCC3(CCN(CCC(C)(C)C)CC3)CC2)c1Cl [Example 99, (5-Chloro-1-ethyl-3-(5-methylisoxazol-3-yl)-1H-pyrazol-4-yl)(9-(3,3-dimethylbutyl)-3,9-diazaspiro[5.5]undecan-3-yl)methanone]	< 100	500 to 1000
Cc1cc(-c2nn(C)c(Cl)c2C(=O)N2CCC3(CCC(NCCC(C)C)CC3)CC2)no1 [Example 93, (5-Chloro-1-methyl-3-(5-methylisoxazol-3-yl)-1H-pyrazol-4-yl)(9-(isopentylamino)-3-azaspiro[5.5]undecan-3-yl)methanone]	100 to 500	> 1000
CCn1nc(-c2ccon2)c(CC(=O)NCC2CCCN(CCC(C)(C)C)C2)c1Cl (centres unmarked) [Example 212, 2-(5-Chloro-1-ethyl-3-(isoxazol-3-yl)-1H-pyrazol-4-yl)-N-((1-(3,3-dimethylbutyl)piperidin-3-yl)methyl)acetamide]	100 to 500	< 100
Cc1cc(-c2nn(C)c(Cl)c2CN2CCC3(CC2)CCN(C(C)c2ccccc2)CC3)no1 (centres unmarked) [Example 65, 3-(5-Chloro-1-methyl-4-((9-(1-phenylethyl)-3,9-diazaspiro[5.5]undecan-3-yl)methyl)-1H-pyrazol-3-yl)-5-methylisoxazole]	100 to 500	100 to 500
CCn1nc(-c2ccon2)c(C(=O)NC2CC3(CCN(CCC(C)(C)C)CC3)C2)c1Cl [Example 139, 5-Chloro-N-(7-(3,3-dimethylbutyl)-7-azaspiro[3.5]nonan-2-yl)-1-ethyl-3-(isoxazol-3-yl)-1H-pyrazole-4-carboxamide]	< 100	100 to 500
CCCn1nc(-c2cc(C)on2)c(C(=O)N2CC3(CCN(CCC(C)(C)C)CC3)C2)c1Cl [Example 185, (5-Chloro-3-(5-methylisoxazol-3-yl)-1-propyl-1H-pyrazol-4-yl)(7-(3,3-dimethylbutyl)-2,7-diazaspiro[3.5]nonan-2-yl)methanone]	< 100	100 to 500
Cn1cc(-c2nn(C)c(Cl)c2C(=O)NC2CC3(CCN(CCC(C)(C)C)CC3)C2)cn1 [Example 140, 5-Chloro-N-(7-(3,3-dimethylbutyl)-7-azaspiro[3.5]nonan-2-yl)-1,1′-dimethyl-1H,1′H-[3,4′-bipyrazole]-4-carboxamide]	< 100	500 to 1000
Cc1cc(-c2nn(C)c(Cl)c2C(=O)N2CCC3(CCN(Cc4ccc(C#N)c(F)c4)CC3)CC2)no1 [Example 131, 4-((9-(5-Chloro-1-methyl-3-(5-methylisoxazol-3-yl)-1H-pyrazole-4-carbonyl)-3,9-diazaspiro[5.5]undecan-3-yl)methyl)-2-fluorobenzonitrile]	500 to 1000	500 to 1000
Cc1cc(-c2nn(C)c(Cl)c2CN2CCC[C@@H](NCCC(C)C)C2)no1 [Example 5, (R)-1-((5-Chloro-1-methyl-3-(5-methylisoxazol-3-yl)-1H-pyrazol-4-yl)methyl)-N-isopentylpiperidin-3-amine]	100 to 500	500 to 1000
CC(C)CCNC1CCCCN(Cc2c(-c3cc(C4CC4)on3)nn(C)c2Cl)C1 (centres unmarked) [Example 19, 1-((5-Chloro-3-(5-cyclopropylisoxazol-3-yl)-1-methyl-1H-pyrazol-4-yl)methyl)-N-isopentylazepan-3-amine]	> 1000	500 to 1000
Cc1cc(-c2nn(C)c(Cl)c2C(=O)N2CCC3(CCN(CCC(C)(C)C)CC3)C2)no1 [Example 94, (5-Chloro-1-methyl-3-(5-methylisoxazol-3-yl)-1H-pyrazol-4-yl)(8-(3,3-dimethylbutyl)-2,8-diazaspiro[4.5]decan-2-yl)methanone]	100 to 500	> 1000
CCn1nc(-c2ccon2)c(C(=O)NC2CCN(CCC(C)(C)C)CC2)c1Cl [Example 163, 5-Chloro-N-(1-(3,3-dimethylbutyl)piperidin-4-yl)-1-ethyl-3-(isoxazol-3-yl)-1H-pyrazole-4-carboxamide]	< 100	100 to 500
